Results from publication PMC8549260, “Crude extract and isolated bioactive compounds from Notholirion thomsonianum (Royale) Stapf as multitargets antidiabetic agents: in-vitro and molecular docking approaches” (BMC Complementary Medicine and Therapies, 2021).
Like-named read-outs stand apart in the source and are kept apart here. One block for each compound: values may come before it.

What was measured:
[1] = DPPH free radicals scavenging assay; conditions: for DPPH Assay % Scavenging (mean ± SEM) / DPPH Percent Inhibition (mean ± SEM): n = 3
Experimental: Plant samples solutions were prepared ranging from 125 to 1000 μg/ mL and were added to 0.004% methanolic solution of DPPH. Subsequent to 30 min incubation, absorbances were measured at 517 nm.
In free radicals’ assays including DPPH, ABTS and H2O2, the IC50s were calculated using same method.

[2] = ABTS free radicals scavenging assay; conditions: for ABTS Assay % Scavenging (mean ± SEM): n = 3
Experimental: Plant crude samples were also evaluated against ABTS free radicals using standard protocol. In this protocols, 7 mM solution of ABTS and 2.45 mM of potassium per sulfate were mixed and kept in dark at laboratory temperature for around 16 h till the color become dark. Solution of 0.01 M of phosphate buffer having pH 7.40 was mixed with it and absorbance was adjusted at 0.70 at 734 nm. Afterwards, solution of the plant extracts (300 μl) was added to ABTS solution (3 mL) and absorbance was recorded at 734 nm. Mixed the solution for 1 min and reduction in absorbance was recorded. The mixing and reduction were repeated for 6 min. The experiments were performed three times. The percent inhibitions and subsequent IC50 values of samples and standard ascorbic acid were calculated as per the standard procedure.

[3] = H2O2 free radicals scavenging assay; conditions: n = 3
Experimental: This method was used to determine the antioxidant potentials of crude extracts from N. thomsonianum. A solution of H2O2 (2 mM) was prepared in buffer solution of phosphate (50 mM, pH 7.40). In a test tube, 0.10 mL of crude extract was measured, and the volume was diluted to 0.40 mL by adding the phosphate buffer. Then 0.60 mL solution of H2O2 was added to it and was mixed properly. The absorbance of the crude sample and standard were recorded on 230 nm. The same procedure was repeated for all the crude samples.

Yeast α-Glucosidase = Yeast α-Glucosidase (Saccharomyces cerevisiae, UniProt P53341); test: biochemical; conditions: for IC50: α-Glucosidase IC50, Table 3, isolated compounds series
Chain of Yeast α-Glucosidase (P53341 whole entry): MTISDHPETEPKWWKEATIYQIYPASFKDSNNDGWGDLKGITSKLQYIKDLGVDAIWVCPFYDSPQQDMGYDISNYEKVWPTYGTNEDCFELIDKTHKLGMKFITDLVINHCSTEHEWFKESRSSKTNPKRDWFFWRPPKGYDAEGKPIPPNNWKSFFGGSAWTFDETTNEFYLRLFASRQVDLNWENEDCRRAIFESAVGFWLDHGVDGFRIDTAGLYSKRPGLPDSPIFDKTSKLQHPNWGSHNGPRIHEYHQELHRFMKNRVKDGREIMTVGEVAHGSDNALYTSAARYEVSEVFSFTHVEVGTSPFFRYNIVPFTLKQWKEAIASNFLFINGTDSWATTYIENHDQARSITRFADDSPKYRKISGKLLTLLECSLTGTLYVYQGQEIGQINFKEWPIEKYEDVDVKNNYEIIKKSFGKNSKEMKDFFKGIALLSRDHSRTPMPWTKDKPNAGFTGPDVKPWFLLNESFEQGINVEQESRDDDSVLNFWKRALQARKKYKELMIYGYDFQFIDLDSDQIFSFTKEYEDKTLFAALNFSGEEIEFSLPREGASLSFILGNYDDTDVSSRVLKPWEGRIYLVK
Experimental: In 0.10 M of phosphate buffer having pH of 6.90, the α-glucosidase enzyme solution was prepared (0.50 U/ mL). […] The same solution without the enzyme was used as a blank. The absorbances were recorded at 405 nm. All the experiments were repeated in triplicate. The percent inhibitions and subsequent IC50 (in μg/mL and also in μM) were calculated accordingly. […]

α-amylase = molecular target: T1, α-amylase (Homo sapiens, UniProt P04746); test: In-vitro α-amylase inhibition; format: biochemical; conditions: for IC50: Table 3, isolated compounds series
T1 sequence (P04746 16-511): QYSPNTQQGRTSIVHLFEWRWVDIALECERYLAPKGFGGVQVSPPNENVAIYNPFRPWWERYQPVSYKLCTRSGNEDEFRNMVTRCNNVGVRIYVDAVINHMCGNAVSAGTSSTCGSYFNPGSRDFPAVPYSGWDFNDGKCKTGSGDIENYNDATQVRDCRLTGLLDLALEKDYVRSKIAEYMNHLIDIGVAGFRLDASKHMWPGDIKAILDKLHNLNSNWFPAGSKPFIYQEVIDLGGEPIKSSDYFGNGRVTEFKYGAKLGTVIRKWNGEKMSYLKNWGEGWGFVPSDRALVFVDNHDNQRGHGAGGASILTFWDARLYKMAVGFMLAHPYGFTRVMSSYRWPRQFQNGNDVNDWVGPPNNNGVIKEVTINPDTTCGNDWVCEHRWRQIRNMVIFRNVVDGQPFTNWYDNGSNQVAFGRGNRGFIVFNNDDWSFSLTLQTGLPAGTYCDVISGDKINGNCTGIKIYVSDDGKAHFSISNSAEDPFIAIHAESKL
Experimental: The amylase solution was prepared in phosphate buffer followed by addition of different concentrations of plant extracts and isolated compounds. The solutions of test samples in enzyme solution were allowed to react. The solutions were incubated for a specific temperature and were added starch solution. Afterwards, a solution of dinitrosalicylic acid was added to both of the groups, i.e. sample and control solution groups. The solutions were then allowed to heat up in boiling water for a few min. […] The experiments were performed in triplicates and percent inhibitions were calculated as per the reported formula. […]

PTP1B = molecular target: T2, PTP1B (Homo sapiens, UniProt P18031); test: Protein tyrosine phosphatase 1B inhibition; format: biochemical
T2 sequence (P18031 1-435): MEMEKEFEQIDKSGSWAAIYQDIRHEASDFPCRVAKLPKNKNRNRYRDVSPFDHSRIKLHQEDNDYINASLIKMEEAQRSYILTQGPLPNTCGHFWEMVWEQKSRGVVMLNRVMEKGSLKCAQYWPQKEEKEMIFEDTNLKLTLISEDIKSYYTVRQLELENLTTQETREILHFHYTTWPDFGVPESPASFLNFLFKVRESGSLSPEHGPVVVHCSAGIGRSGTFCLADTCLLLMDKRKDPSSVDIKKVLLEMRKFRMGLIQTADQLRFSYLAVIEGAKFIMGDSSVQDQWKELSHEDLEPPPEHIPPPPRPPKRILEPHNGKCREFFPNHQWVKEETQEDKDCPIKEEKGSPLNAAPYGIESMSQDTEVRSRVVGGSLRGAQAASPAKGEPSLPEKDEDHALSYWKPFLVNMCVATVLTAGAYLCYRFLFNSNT
Experimental: The solutions were then incubated for 40 min at 27 °C and absorbances were recorded at 405 nm using microplate reader. The experiments were repeated three times and percent inhibitions followed by IC50 values were recorded accordingly.

[4] = read-out: Alpha glucosidase Percent Inhibition (mean ± SEM)
[5] = read-out: α-Glucosidase Percent Inhibition (mean ± SEM)
[6] = read-out: Alpha amylase Percent Inhibition (mean ± SEM)
[7] = read-out: α-Amylase Percent Inhibition (mean ± SEM)
[8] = Table 3, 125 μg/mL, n = 3, read-out: α-Amylase Percent Inhibition (mean ± SEM) (converted)
[9] = Table 3, 250 μg/mL, n = 3, read-out: α-Amylase Percent Inhibition (mean ± SEM) (converted)
[10] = Table 3, 500 μg/mL, n = 3, read-out: α-Amylase Percent Inhibition (mean ± SEM)
[11] = 125 μg/mL, n = 3, read-out: PTP1B Percent Inhibition (mean ± SEM) (converted)
[12] = 250 μg/mL, n = 3, read-out: PTP1B Percent Inhibition (mean ± SEM) (converted)
[13] = 500 μg/mL, n = 3, read-out: PTP1B Percent Inhibition (mean ± SEM)
[14] = read-out: PTP1B Percent Inhibition (mean ± SEM)

DPPH Assay IC50 ([1]; Table 2, crude extracts series): < 0.1 µg/mL
ABTS Assay IC50 [2]: < 0.1 µg/mL
Compound: O=C1O[C@H]([C@@H](O)CO)C(O)=C1O [AA, Ascorbic acid]
DPPH Assay % Scavenging (mean ± SEM) ([1]; Table 2, 125 μg/mL): 76.54 ± 0.54%
DPPH Assay % Scavenging (mean ± SEM) ([1]; Table 2, 250 μg/mL): 81.33 ± 0.88%
DPPH Assay % Scavenging (mean ± SEM) ([1]; Table 2, 500 μg/mL): 87.84 ± 0.26%
DPPH Assay % Scavenging (mean ± SEM) ([1]; Table 2, 1000 μg/mL): 92.55 ± 0.35%
DPPH Percent Inhibition (mean ± SEM) ([1]; Table 4, 125 μg/mL): 85.20 ± 0.49%
DPPH Percent Inhibition (mean ± SEM) ([1]; Table 4, 250 μg/mL): 88.47 ± 0.71%
DPPH Percent Inhibition (mean ± SEM) ([1]; Table 4, 500 μg/mL): 91.75 ± 0.42%
ABTS Assay % Scavenging (mean ± SEM) ([2]; 125 μg/mL): 78.46 ± 0.58%
ABTS Assay % Scavenging (mean ± SEM) ([2]; 250 μg/mL): 80.43 ± 0.55%
ABTS Assay % Scavenging (mean ± SEM) ([2]; 500 μg/mL): 86.53 ± 0.60%
ABTS Assay % Scavenging (mean ± SEM) ([2]; 1000 μg/mL): 87.60 ± 0.40%
H2O2 Assay % Scavenging (mean ± SEM) ([3]; 125 μg/mL): 68.00 ± 0.57%
H2O2 Assay % Scavenging (mean ± SEM) ([3]; 250 μg/mL): 71.50 ± 0.60%
H2O2 Assay % Scavenging (mean ± SEM) ([3]; 500 μg/mL): 74.66 ± 0.49%
H2O2 Assay % Scavenging (mean ± SEM) ([3]; 1000 μg/mL): 83.33 ± 0.88%

Compound: C[C@H]1O[C@H](O[C@H]2[C@H](O)[C@@H](O)[C@@H](O[C@H]3[C@H](O)[C@@H](O)C(O)O[C@@H]3CO)O[C@@H]2CO)[C@H](O)[C@@H](O)[C@@H]1N[C@H]1C=C(CO)[C@@H](O)[C@H](O)[C@H]1O (some centres unmarked) [Acarbose, reference compound]
inhibition at 125 µg/mL (Yeast α-Glucosidase; [4]): 61.5%
inhibition at 250 µg/mL (Yeast α-Glucosidase; [4]): 67.5%
inhibition at 500 µg/mL (Yeast α-Glucosidase; [4]): 73.9%
inhibition at 1000 µg/mL (Yeast α-Glucosidase; [4]): 76.87 ± 0.06%
inhibition at 125 µg/mL (Yeast α-Glucosidase; [5]): 77.6%
inhibition at 250 µg/mL (Yeast α-Glucosidase; [5]): 82.4%
inhibition at 500 µg/mL (Yeast α-Glucosidase; [5]): 87.08 ± 0.47%
inhibition at 125 µg/mL (α-amylase; [6]): 64.5%
inhibition at 250 µg/mL (α-amylase; [6]): 69%
inhibition at 500 µg/mL (α-amylase; [6]): 71.7%
inhibition at 1000 µg/mL (α-amylase; [6]): 78.63 ± 0.54%
inhibition at 125 µg/mL (α-amylase; [7]): 83.9%
inhibition at 250 µg/mL (α-amylase; [7]): 89.5%
inhibition at 500 µg/mL (α-amylase; [7]): 95.23 ± 0.22%

Compound: CC(C)=CC(=O)CC(C)c1ccc(C)cc1 (centres unmarked) [Nt01]
inhibition at 125 µg/mL (Yeast α-Glucosidase; [5]): 44.4%
inhibition at 250 µg/mL (Yeast α-Glucosidase; [5]): 51.9%
inhibition at 500 µg/mL (Yeast α-Glucosidase; [5]): 55.6 ± 1.06%
inhibition at 125 µg/mL (α-amylase; [8]): 67.9%
inhibition at 250 µg/mL (α-amylase; [9]): 72.1%
inhibition at 500 µg/mL (α-amylase; [10]): 77.8 ± 2.24%
IC50 (α-amylase): < 144 µM
IC50 (α-amylase; based on molecular weight): < 145 µM
IC50 (PTP1B): < 144 µM
inhibition at 125 µg/mL (PTP1B; [11]): 83.4%
inhibition at 250 µg/mL (PTP1B; [12]): 88.7%
inhibition at 500 µg/mL (PTP1B; [13]): 90.09 ± 0.32%
IC50 (PTP1B; based on molecular weight): < 145 µM
DPPH Percent Inhibition (mean ± SEM) ([1]; Table 4, 125 μg/mL): 79.62 ± 0.03%
DPPH Percent Inhibition (mean ± SEM) ([1]; Table 4, 250 μg/mL): 84.36 ± 1.15%
DPPH Percent Inhibition (mean ± SEM) ([1]; Table 4, 500 μg/mL): 88.35 ± 0.89%

Compound: CCCC/C=C/C=O [Nt02]
inhibition at 125 µg/mL (Yeast α-Glucosidase; [5]): 66.9%
inhibition at 250 µg/mL (Yeast α-Glucosidase; [5]): 71.1%
inhibition at 500 µg/mL (Yeast α-Glucosidase; [5]): 76.8 ± 2.24%
IC50 (Yeast α-Glucosidase): < 279 µM
IC50 (Yeast α-Glucosidase; based on molecular weight): < 279 µM
IC50 (α-amylase): < 279 µM
IC50 (α-amylase; based on molecular weight): < 279 µM
inhibition at 125 µg/mL (α-amylase; [7]): 78.4%
inhibition at 250 µg/mL (α-amylase; [7]): 85.3%
inhibition at 500 µg/mL (α-amylase; [7]): 91.36 ± 0.49%
IC50 (PTP1B): < 279 µM
IC50 (PTP1B; based on molecular weight): < 279 µM
inhibition at 125 µg/mL (PTP1B; [14]): 85.8%
inhibition at 250 µg/mL (PTP1B; [14]): 90.9%
inhibition at 500 µg/mL (PTP1B; [14]): 93.03 ± 0.48%
DPPH Percent Inhibition (mean ± SEM) ([1]; Table 4, 125 μg/mL): 74.78 ± 0.44%
DPPH Percent Inhibition (mean ± SEM) ([1]; Table 4, 250 μg/mL): 79.32 ± 0.40%
DPPH Percent Inhibition (mean ± SEM) ([1]; Table 4, 500 μg/mL): 86.60 ± 0.00%

Compound: Cc1c(C)c2c(c(C)c1O)CCC(C)(CCCC(C)CCCC(C)CCCC(C)C)O2 (centres unmarked) [Nt03]
inhibition at 125 µg/mL (Yeast α-Glucosidase; [5]): 70.6%
inhibition at 250 µg/mL (Yeast α-Glucosidase; [5]): 73.4%
inhibition at 500 µg/mL (Yeast α-Glucosidase; [5]): 78.35 ± 0.23%
IC50 (Yeast α-Glucosidase): < 72.6 µM
IC50 (Yeast α-Glucosidase; based on molecular weight): < 72.7 µM
inhibition at 125 µg/mL (α-amylase; [8]): 80.6%
inhibition at 250 µg/mL (α-amylase; [9]): 86.5%
inhibition at 500 µg/mL (α-amylase; [10]): 93.1 ± 1.04%
IC50 (α-amylase): < 72.6 µM
IC50 (α-amylase; based on molecular weight): < 72.7 µM
IC50 (PTP1B): < 72.6 µM
inhibition at 125 µg/mL (PTP1B; [11]): 82.3%
inhibition at 250 µg/mL (PTP1B; [12]): 87.2%
inhibition at 500 µg/mL (PTP1B; [13]): 90.83 ± 0.47%
IC50 (PTP1B; based on molecular weight): < 72.7 µM
DPPH Percent Inhibition (mean ± SEM) ([1]; Table 4, 125 μg/mL): 84.44 ± 0.15%
DPPH Percent Inhibition (mean ± SEM) ([1]; Table 4, 250 μg/mL): 87.14 ± 0.49%
DPPH Percent Inhibition (mean ± SEM) ([1]; Table 4, 500 μg/mL): 90.69 ± 0.14%

inhibition at 125 µg/mL (PTP1B; [11]): 91.5%
inhibition at 250 µg/mL (PTP1B; [12]): 93.6%
inhibition at 500 µg/mL (PTP1B; [13]): 98.7 ± 1.32%
Compound: C[C@H]1[C@H](C)CC[C@]2(C(=O)O)CC[C@]3(C)C(=CC[C@@H]4[C@@]5(C)CC[C@H](O)C(C)(C)[C@@H]5CC[C@]43C)[C@H]12 [Ursolic acid, reference compound]
